Assay: Metabolic stability in human liver microsomes at 1 uM in presence of NADPH regenerating system measured up to 60 mins by UFLC-MS/MS analysis
Format: ADME, Microsome
Settings: 1 h

- Stabilty: Unstable
Compound: COc1ccc(N(C)c2nc(C)nc3ccccc23)cc1OCC(=O)NO
